Assays:
[1] = system: pancreatic pdx microtumors 12558; experiment: Drug efficacy on PDX-derived pancreatic microtumors by tumor growth kinetics over 11 days; type: cell-based; settings: drugs at cmax values in vivo, 11 days monitoring
[2] = system: pancreatic patient-derived xenograft; experiment: In vivo efficacy in pancreatic patient-derived xenograft (PDX-mouse model); settings: average response of 5 individual animals
Method: To compare whether the in vitro efficacy analysis is matching in vivo (mouse) efficacy drug response data as obtained, pancreatic patient-derived xenograft (PDX-mouse model) and pancreatic microtumors derived from PDX tumor tissue were generated. Two single drugs (Gemcitabine and Abraxane) and two drug combinations (Gemcitabine:Erlotinib and Gemcitabine:Abraxane) were tested. In vivo data points reflect the average response of 5 individual animals.

[3] = system: living, perfused microvessels (vasculature) of in vitro vascularized microtumors; settings: VMT platform, Sobrino et al. 2016; cited from earlier work

Row | Structure (SMILES) | drug efficacy on microtumors (t11/t0 and t11treated/t11control) [1] | in vivo (mouse) efficacy drug response [2] | effect on vasculature of vascularized microtumors [3]
1 | O=C1[O][Pt]2([NH][C@@H]3CCCC[C@H]3[NH]2)[O]C1=O [Oxaliplatin] | least effective | – | –
2 | Nc1ccn([C@@H]2O[C@H](CO)[C@@H](O)C2(F)F)c(=O)n1 [Gemcitabine] | highest efficacy | highest efficacy | –
3 | N#CC1(c2ccc(NC(=O)c3cccnc3NCc3ccncc3)cc2)CCCC1 [Apatinib] | – | – | not effective
